Columns and labels:
Assay type in all cases: cell-based, human
LNCaP-BRCA2-RB1 cells [1] = assay: MTT cell growth with PARP inhibitors; conditions: LNCaP-BRCA2-RB1 vs BRCA2-null LNCaP; olaparib 3 μM, talazoparib 0.005 μM (FIG. 2E)
Procedure: (§1) Scr-CRISPR and BRCA2-CRISPR2 cells were also transfected with non-targeting shRNA (scr-Sh) for control of shRNA. RHoGDI served as the loading control. […] Equivalent volume of DMSO was used as placebo treatment. Cell growth was measured by MTT assay; SD, p-values were determined by Student's t-test. […] FIG. 2C (2nd and 3rd rows) show the immunofluorescence (400× magnification) of F-actin filament stained with phalloidin in indicated CRISPR/shRNA-infected LNCaP cells. Nuclei were stained with DAPI (blue). […] 5×10^3 indicated cells were plated on the top of Boyden chamber (see Example 1) in serum-free media; 10% serum in the bottom chamber was used as chemo-attractant. After 48 hours, cells in the lower side of the chamber were fixed, stained, and photographed (100× magnification). […] Nuclei were stained with DAPI (blue). […] The graphs show cell growth measured by MTT assay (±SD); P-values determined by Student's t-test. […] RNA sequencing was analyzed by Partek.
(§2) To generate BRCA2-RB1 knockout-knockdown LNCaP cells, parental LNCaP cells were first infected with lentivirus containing BRCA2 gRNA or scr gRNA. Pooled population of the stable cells were established by puromycin selection and analyzed by western blot and qPCR. BRCA2-knockout or scr LNCaP cells were infected with lentivirus containing RB1 shRNA followed by hygromycin selection. BRCA2-knockout or scr (gRNA) LNCaP cells also infected with lentiviral non-targeting shRNA (scr-shRNA) were used as control. Cells within 4-10 passages after stable selection were used for the following experiments.
(§3) Cell Proliferation Assay by MTT, BrdU and Crystal Violet. For MTT assay, cells were plated at 2.5×10^3 per well in 96-well plates in complete media (10% FBS) or media supplemented with 10% charcoal-stripped serum. Cells were either treated with DMSO or with indicated inhibitors. After indicated times, cells were incubated in 0.5 mg/mL MTT (Invitrogen) for 1 hour at 37° C. MTT crystals were dissolved in isopropanol and absorbance was measured in a BioTek plate reader at […] and represented graphically.

[2] = system: RB1 knockdown LNCaP cells; assay: MTT cell growth with PARP inhibitors; conditions: RB1 knockdown vs control LNCaP cells; olaparib 3 μM, talazoparib 0.005 μM (FIG. 2E)
Procedure: as §1, §2, §3

BRCA2-null RWPE1 cells = assay: MTT cell growth with olaparib; conditions: BRCA2-null vs control RWPE1; 3 μM and 10 μM olaparib, 7 days (FIG. 3G)
Procedure: Scr-CRISPR and BRCA2-CRISPR2 cells were also transfected with non-targeting shRNA (scr-Sh) for control of shRNA. GAPDH served as the loading control. […] Nuclei were stained with DAPI (blue). […] Control cells were transfected with empty vector. […] GAPDH served as the loading control. […] LNCaP cells were used as control. GAPDH served as the loading control. […] Nuclei were stained with DAPI (blue). […] Equivalent volume of DMSO was used as placebo treatment. Cell growth was measured by MTT assay; SD, P-values determined by Student's t-test. […] LNCaP-BRCA2-RB1 or control cells were incubated in charcoal-stripped medium (CSS) for 24 hours followed by treatment with 1 nM R1881 for another 48 hours (in CSS). […] After 24 hours, cells in the lower side of the chamber were fixed, stained, photographed in 100× magnification (top panel), and counted and represented in the form of the bar graph (bottom panel). P-values were determined by Student's t-test.
(§4) To generate BRCA2 knockout RWPE1 cells, BRCA2 gRNA2 was cloned into LentiCRISPRv2-GFP backbone which constitutively expresses Cas9 and GFP. Lentiviral infected cells were selected by FACS sorting for GFP positive cells (twice) and analyzed by western blot. […] Loss of BRCA2 in the pooled populations of LNCaP cells was analyzed by western blot using BRCA2-specific antibodies and this pooled population of cells was used for the following experiments. […]

MSK-PCa1 organoid = assay: MTT growth of mCRPC organoids with PARPi; conditions: compared to benign organoid; 3 days (FIG. 6E)
Excerpt: (§5) Near-diploid benign prostate organoid is used as a control. […] GAPDH served as the loading control. […] The graphs show cell growth measured by MTT assay (±SD); P-trends determined by 2-way ANOVA.
(§6) Cell Culture. Human prostate cancer cells LNCaP, 22RV1, DU145, PC3, and VCaP were obtained from ATCC (Manassas, VA). LNCaP-C42 cells were obtained from VitroMed (Burlington, NC). The LNCaP-Abl cell line, E006AA-T cells, PC3M LAPC4 cell line were obtained. These cells were maintained in 10% FBS (LNCaP, LNCaP-C42, LAPC4, VCaP, 22RV1, DU145, PC3, PC3M, and E006AA) or 10% charcoal-stripped serum (LNCaP-Abl) supplemented with 2 mM of L-glutamine and 1×antibiotic/antimycotic (Gemini Bio-Products, Sacramento, CA) at 37° C. in 5% CO2. Human prostate epithelial cell RWPE1 was obtained from ATCC and cultured in keratinocyte serum-free medium (Thermo Fisher Scientific, Waltham, MA) at 37° C. in 5% CO2. Cells were authenticated by human short tandem repeat profiling at the MSK Integrated Genomics Operation Core. Patient-derived human prostate cancer organoids were cultured as described. Gao et al., Cell 159:176-87 (2014).
as §3

MSK-PCa3 organoid = assay: MTT growth of mCRPC organoids with PARPi; conditions: compared to benign organoid; 3 days (FIG. 6E)
Excerpt: as §5, §6, §3

BRCA2-null LNCaP cells [3] = assay: MTT cell growth of BRCA2 CRISPR-edited LNCaP cells with PARP inhibitors or cisplatin; conditions: BRCA2 knockout LNCaP vs control gRNA (scr) cells; complete medium, 6 days (FIG. 7C)
Procedure: Cells infected with scrambled (scr) gRNA were used as control. Equal amount of proteins was loaded in WedgeWell 6% gel and western blot was performed. ˜400 kDa BRCA2 band is indicated by arrow. GAPDH served as loading controls for western blot and qPCR. […] Genotypes are detected by PCR amplification followed by being treated with T7 endonuclease. Wt and mutant BRCA2 are indicated by red and green arrows, respectively. […] Equivalent volume of DMSO was used as placebo treatment. Cell growth was measured by MTT assay (see Example 1); SD, P-values determined by Student's t-test. *P<0.05, **P<0.01, ***P<0.001. FIGS. 7D-7E show the growth curve (FIG. 7D) and a bar graph (FIG. 7E) representing the cell growth of LNCaP BRCA2 CRISPR-edited and non-targeting control gRNA (scr) infected cells in complete medium supplemented with enzalutamide (ENZ; indicated concentration) for 7 days or charcoal-stripped medium (CSS) for 5 days, respectively. Equivalent volume of DMSO was used as placebo treatment. Cell growth was measured by crystal violet staining assay (see Example 1) (±SD); P-values determined by Student's t-test. […] Equivalent volume of DMSO was used as placebo treatment. Cell growth was measured by MTT assay (see Example 1) (±SD); P-values determined by Student's t-test. […] Total RNA was isolated, and BRCA2 mRNA was analyzed by qPCR. […] Cell growth was measured by MTT assay; SD, P-values determined by Student's t-test.
as §4
(§7) Cell Proliferation Assay by MTT, BrdU and Crystal Violet. […] MTT crystals were dissolved in isopropanol and absorbance was measured in a BioTek plate reader at […] and represented graphically.

BRCA2-null LNCaP cells [4] = assay: Cell growth (BrdU, crystal violet, MTT) of BRCA2 CRISPR-edited LNCaP cells with enzalutamide; conditions: BRCA2-null LNCaP vs scr control; complete medium, 7 days (FIGS. 1E, 7D, 7F)
Procedure: Cells infected with scrambled (scr) gRNA were used as a negative control. Cas9 and RHoGDI served as loading controls. […] Nuclei were stained with DAPI (blue). […] P-values were determined by Student's t-test. ***P<0.001. […] Equivalent volume of DMSO was used as placebo treatment. Cell growth was measured by BRDU incorporation assay (see Example 1) (±SD); P-values were determined by Student's t-test.***P<0.001. […] Parental LAPC4 cells were transiently transfected with BRCA2-specific SMARTpool siRNA for 96 hours. Total RNA was isolated, and BRCA2 mRNA was analyzed by qPCR. Scrambled SMARTpool siRNA-transfected cells were used as control (top). […] Cell growth was measured by MTT assay; SD, p-values were determined by Student's t-test. […]
Cells infected with scrambled (scr) gRNA were used as control. […] Genotypes are detected by PCR amplification followed by being treated with T7 endonuclease. […] Cell growth was measured by MTT assay (see Example 1); SD, P-values determined by Student's t-test. *P<0.05, **P<0.01, ***P<0.001. […] Cell growth was measured by crystal violet staining assay (see Example 1) (±SD); P-values determined by Student's t-test. […] Cell growth was measured by MTT assay (see Example 1) (±SD); P-values determined by Student's t-test. […] Total RNA was isolated, and BRCA2 mRNA was analyzed by qPCR. […] Cell growth was measured by MTT assay; SD, P-values determined by Student's t-test. […]

[5] = system: BRCA2 SMARTpool siRNA-transfected LNCaP cells; assay: MTT cell growth of BRCA2 siRNA-transfected LNCaP cells with enzalutamide; conditions: BRCA2 siRNA LNCaP vs scrambled siRNA; ENZ 20 μM, 96 hours post transfection (FIG. 7G)
Procedure: Cells infected with scrambled (scr) gRNA were used as control. Equal amount of proteins was loaded in WedgeWell 6% gel and western blot was performed. ˜400 kDa BRCA2 band is indicated by arrow. GAPDH served as loading controls for western blot and qPCR. […] Genotypes are detected by PCR amplification followed by being treated with T7 endonuclease. Wt and mutant BRCA2 are indicated by red and green arrows, respectively. […] Equivalent volume of DMSO was used as placebo treatment. Cell growth was measured by MTT assay (see Example 1); SD, P-values determined by Student's t-test. *P<0.05, **P<0.01, ***P<0.001. […] Cell growth was measured by crystal violet staining assay (see Example 1) (±SD); P-values determined by Student's t-test. […] Cell growth was measured by MTT assay (see Example 1) (±SD); P-values determined by Student's t-test. […] Total RNA was isolated, and BRCA2 mRNA was analyzed by qPCR. […] Cell growth was measured by MTT assay; SD, P-values determined by Student's t-test. […]
as §7

[6] = system: BRCA2 SMARTpool siRNA-transfected LAPC4 cells; assay: MTT cell growth of BRCA2 siRNA-transfected LAPC4 cells with enzalutamide; conditions: BRCA2 siRNA LAPC4 vs scrambled siRNA; ENZ 20 μM, 72 hours after transfection (FIG. 1F)
Procedure: Cells infected with scrambled (scr) gRNA were used as a negative control. Cas9 and RHoGDI served as loading controls. […] Nuclei were stained with DAPI (blue). […] P-values were determined by Student's t-test. ***P<0.001. […] Equivalent volume of DMSO was used as placebo treatment. Cell growth was measured by BRDU incorporation assay (see Example 1) (±SD); P-values were determined by Student's t-test.***P<0.001. […] Parental LAPC4 cells were transiently transfected with BRCA2-specific SMARTpool siRNA for 96 hours. Total RNA was isolated, and BRCA2 mRNA was analyzed by qPCR. Scrambled SMARTpool siRNA-transfected cells were used as control (top). BRCA2- or scrambled SMARTpool siRNA-transfected LAPC4 cells were cultured in charcoal-stripped medium (CSS) or complete medium supplemented with enzalutamide (ENZ; 20 μM) for 72 hours after transfection (bottom). Equivalent volume of DMSO was used as placebo treatment. Cell growth was measured by MTT assay; SD, p-values were determined by Student's t-test. […] Control and CRISPR-edited LNCaP cells (10^3 cells/well) were mixed with Matrigel, and 3D cell cultures (organoids) were grown for 7 days in androgen-depleted, growth factor-enriched media. […]
as §7

22RV1 cells = assay: MTT cell growth with PARPi or cisplatin; conditions: 22RV1, BRCA2 T3033Nfs*11, RB1-wt; cisplatin 500 nM, talazoparib 5 nM, 6 days (FIG. 11D)
Procedure: as §3, with “The ploidy of each cell line is indicated. […] Equivalent volume of DMSO was used as placebo treatment. Cell growth was measured by MTT assay (see Example 1); SD, each point indicates the MTT count of each well of 96-well plate, P-values determined by Student's t-test. **P<0.01, ****P<0.0001. […] Cell Proliferation” for “Cell Proliferation”

LNCaP-BRCA2-RB1 cells [7] = assay: qPCR of EMT transcription factors after androgen (R1881) treatment; conditions: 1 nM R1881, 48 hours in CSS (FIG. 3I)
Procedure: Scr-CRISPR and BRCA2-CRISPR2 cells were also transfected with non-targeting shRNA (scr-Sh) for control of shRNA. GAPDH served as the loading control. […] Nuclei were stained with DAPI (blue). […] Control cells were transfected with empty vector. […] GAPDH served as the loading control. […] LNCaP cells were used as control. GAPDH served as the loading control. […] Nuclei were stained with DAPI (blue). […] Equivalent volume of DMSO was used as placebo treatment. Cell growth was measured by MTT assay; SD, P-values determined by Student's t-test. […] LNCaP-BRCA2-RB1 or control cells were incubated in charcoal-stripped medium (CSS) for 24 hours followed by treatment with 1 nM R1881 for another 48 hours (in CSS). […] Expression of the indicated genes normalized with untreated control and GAPDH. […] Scrambled-SMARTpool siRNA transfected LNCaP cells were used as control. 2.5×10^3 indicated cells (72 hours after indicated siRNA transfection) were plated on the top of Boyden chamber in serum-free media; 10% serum in the bottom chamber was used as chemo-attractant. After 24 hours, cells in the lower side of the chamber were fixed, stained, photographed in 100× magnification (top panel), and counted and represented in the form of the bar graph (bottom panel). P-values were determined by Student's t-test.
RNA Extraction and qPCR. […] All quantifications were normalized to endogenous GAPDH.

O=C(c1cc(Cc2n[nH]c(=O)c3ccccc23)ccc1F)N1CCN(C(=O)C2CC2)CC1 [olaparib]
cell growth inhibition (MTT) (LNCaP-BRCA2-RB1 cells [1]): more cell growth inhibition
inhibitory effect on cell growth (MTT) [2]: could not be detected
sensitivity (cell growth, MTT) (BRCA2-null RWPE1 cells): enhanced sensitivity
organoid growth (MTT) (MSK-PCa1 organoid): growth reduction
organoid growth (MTT) (MSK-PCa3 organoid): growth reduction

CNCc1ccc(-c2[nH]c3cc(F)cc4c3c2CCNC4=O)cc1 [rucaparib]
sensitivity (cell growth, MTT) (BRCA2-null LNCaP cells [3]): more sensitivity

CNC(=O)c1ccc(N2C(=S)N(c3ccc(C#N)c(C(F)(F)F)c3)C(=O)C2(C)C)cc1F [enzalutamide]
resistance to enzalutamide (cell growth) (BRCA2-null LNCaP cells [4]): relative resistance
growth in complete media supplemented with enzalutamide [5]: resistance to androgen depletion
growth in complete media supplemented with enzalutamide [6]: resistance to androgen depletion

N.N.[Cl][Pt][Cl] [cisplatin]
sensitivity (cell growth, MTT) (BRCA2-null LNCaP cells [3]): enhanced sensitivity
sensitivity (cell growth, MTT) (22RV1 cells): sensitivity

C[C@]1(O)CC[C@H]2[C@@H]3CCC4=CC(=O)CCC4=C3C=C[C@@]21C [R1881]
SLUG mRNA (qPCR) (LNCaP-BRCA2-RB1 cells [7]): significantly increased
